# Results reported in patent US6919344B2, “N-substituted indole-3-glyoxylamides having anti-asthmatic, antiallergic and immunosuppressant/immuno-modulating action” (ASTA MEDICA, Aktiengesellschaft, priority 1996, dated 2005).
# What was measured:
# [1] = biological target: recombinant human Cyp B (Homo sapiens, UniProt P23284); experiment: Peptidylprolyl isomerase (PPIase) activity inhibition assay; assay type: biochemical; conditions: Cyp B incubated with 1 μM substance for 15 min, 10° C.
# Method: Assays for the Determination of Peptidylprolyl Isomerase (PPIase) Activity and Inhibition
# The PPIase activity of the cyclophilins was measured enzymatically according to Fischer et al. (1984). After isomerization of the substrate by the peptidyl prolyl isomerase, this is accessible to chymotrypsin, which cleaves the chromophore p-nitroaniline. For the determination of inhibition of the PPIase activity by substance, recombinant human Cyp B was used. The interaction of Cyp B with a potential inhibitor was carried out as follows:
# A certain concentration of purified Cyp B was incubated with 1 μM substance for 15 min. The PPIase reaction was started by addition of the substrate solution to the reaction mixture which contains HEPES buffer, chymotrypsin and either test or control samples. Under these conditions, first-order kinetics were obtained with a constant Kobserved=K0+Kenz, where K0 is the spontaneous isomerization and Kenz is the rate of isomerization of the PPIase activity. The extinction values which correspond to the amount of the chromophore cleaved were measured using a Beckman DU 70 spectrophotometer at a constant reaction temperature of 10° C.
# The observed residual activity in the presence of various substances was compared with the cyclophilins only treated with solvent. The results were given in % residual activity. Cyclosporin A (CsA) was used as the reference compound. […]
# [2] = system: lymphoproliferation; experiment: Inhibition of lymphoproliferation (colorimetric MTT assay); assay type: cell-based
# Excerpt: Colorimetric Assay (Based on the MTT Test) for the Non-Radioactive Quantification of Cell Proliferation and Survival Ability
# MTT is used for the quantitative determination of cell proliferation and activation, for example, in the reaction on growth factors and cytokines such as IL-2 and IL-4 and also for the quantification of the antiproliferative or toxic effects.
# The assay is based on the cleavage of yellow tetrazolium salt MTT to give purple-red formazan crystals by metabolically active cells.
# The cells, cultured in a 96-hole tissue culture plate, are incubated for about 4 h with yellow MTT solution. After this incubation time, purple-red formazan salt crystals are formed. These salt crystals are insoluble in aqueous solutions, but can be dissolved by addition of solubilizer and by incubation of the plates overnight.
# The dissolved formazan product is quantified spectrophotometrically using an ELISA reader. An increase in the number of living cells results in an increase in the total metabolic activity in the sample. This increase correlates directly with the amount of the purple-red formazan crystals formed, which are [sic] measured by the absorption.
# [3] = system: "late phase" eosinophilia in the BAL; experiment: Inhibition of the "late phase" eosinophilia in the BAL 24 hours after allergen challenge in guinea pigs; assay type: in vivo
# Method: Inhibition of the “Late Phase” eosinophilia in the BAL 24 Hours after Allergen Challenge in Guinea Pigs
# Male guinea pigs (200-250 g, Dunkin Hartley Shoe) were actively sensitized subcutaneously with ovalbumin (10 μg of ovalbumin+1 mg of Al(OH)3) and boosted 2 weeks later. One week after boosting with ovalbumin, the animals were exposed to an inhalation challenge with ovalbumin (0.5% strength solution) for 20-30 seconds. 24 hours later, the animals were killed by means of an overdose of urethane, exsanguinated and a bronchoalveolar lavage (BAL) was carried out using 2×5 ml of 0.9% strength physiological saline solution.
# The lavage fluid was collected and centrifuged at 400 g for 10 minutes, and the pellets were suspended in 1 ml of 0.9% strength physiological saline solution. The eosinophils were counted microscopically in a Neubauer chamber after staining by means of Becton Dickinson test kit No. 5877. This test kit contains Phloxin B as a selective stain for eosinophils. The eosinophils in the BAL was [sic] counted here for each animal and expressed as eosinophils (millions/animal). For each group the mean value and standard deviation were determined. The percentage inhibition of eosinophilia for the group treated with test substance was calculated according to the following formula: (A−B)−(B−C)/(A−C)×100=% inhibition in this formula A eosinophils correspond to the untreated challenge group, B eosinophils to the treated group and C eosinophils to the unchallenged control group.
# The animals were treated with a histamine H1 antagonist (azelastine; 0.01 mg/kg p.o.) 2 hours before allergen challenge to avoid death. The administration of the test substances or of the vehicle was carried out 4 hours after allergen challenge.
# [4] = system: CD3-induced IL-2 production; experiment: Inhibition of CD3-induced IL-2 production; assay type: cell-based
# Sequence of recombinant human Cyp B (P23284 34-216): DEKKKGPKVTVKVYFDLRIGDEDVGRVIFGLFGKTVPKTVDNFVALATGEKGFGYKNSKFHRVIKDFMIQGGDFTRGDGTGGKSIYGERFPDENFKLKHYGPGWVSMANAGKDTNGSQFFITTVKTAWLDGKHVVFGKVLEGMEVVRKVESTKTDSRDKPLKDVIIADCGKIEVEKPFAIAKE
compound,measurement,setting,value
"O=C(Nc1ccncc1)C(=O)c1cn(Cc2ccc(F)cc2)c2ccccc12 [Ex. 1, N-(Pyridin-4-yl)-[1-(4-fluorobenzyl)indol-3-yl]glyoxylamide]",Inhibition of PPIase activity,[1],80-100%
same,inhibition at 0.1 µM,[2]; Conc. 0.1 μM,18%
same,inhibition at 1 µM,[2]; Conc. 1 μM,39%
same,inhibition at 10 µM,[2]; Conc. 10 μM,61%
same,"% Inhibition of the ""late phase"" eosinophilia 24 h after allergen challenge",[3]; 5 mg/kg i.p. + 4 h after allergen challenge,27.8%
same,"% Inhibition of the ""late phase"" eosinophilia 24 h after allergen challenge",[3]; 10 mg/kg i.p. + 4 h after allergen challenge,55.4%
same,"% Inhibition of the ""late phase"" eosinophilia 24 h after allergen challenge",[3]; 30 mg/kg p.o. + 4 h after allergen challenge,56.1%
same,inhibition at 0.1 µM,[4]; Conc. 0.1 μM,34%
same,inhibition at 1 µM,[4]; Conc. 1 μM,72%
same,inhibition at 10 µM,[4]; Conc. 10 μM,95%
